Measured values published in ChEMBL document CHEMBL1201862, “PubChem BioAssay data set” (2004).
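Dose response: 5 concentrations. Exposure: 48 h. Format: 96-well plates. Endpoint: linear interpolation; highest concentration if not reached. At the GI50, growth is halved.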 The source made the active and inactive calls. Cut-off read from the data, not from the text of the source: active = GI50 up to about 1.1 µM and inactive = higher.

How the values were obtained:
Assay in all cases: inhibition of tumour cell growth, NCI panel, 48 h
A498 = system: A498
A549 = system: A549
SF-295 = system: SF-295
XF498 = system: XF498
UACC-62 = system: UACC-62
RXF 393 = system: RXF 393
NCI-H23 = system: NCI-H23
RXF 631 = system: RXF 631
OVCAR-5 = system: OVCAR-5
DMS-273 = system: DMS-273
SK-MEL-28 = system: SK-MEL-28
NCI-H460 = system: NCI-H460
MOLT-4 = system: MOLT-4
HL-60 = system: HL-60
EKVX = system: EKVX
RPMI-8226 = system: RPMI-8226
NCI-H522 = system: NCI-H522
SF-539 = system: SF-539
DLD-1 = system: DLD-1
SW-620 = system: SW-620
SNB-78 = system: SNB-78
SNB-75 = system: SNB-75
UO-31 = system: UO-31
U-251 = system: U-251
LOX IMVI = system: LOX IMVI
OVCAR-3 = system: OVCAR-3
DMS-114 = system: DMS-114
SR = system: SR
M19-MEL = system: M19-MEL
OVCAR-4 = system: OVCAR-4
NCI-H226 = system: NCI-H226
HT-29 = system: HT-29
SK-MEL-5 = system: SK-MEL-5
LXFL 529 = system: LXFL 529
CAKI-1 = system: CAKI-1
KM12 = system: KM12
K562 = system: K562
TK-10 = system: TK-10
SN12C = system: SN12C
OVCAR-8 = system: OVCAR-8
UACC-257 = system: UACC-257
HCT-116 = system: HCT-116
HOP-92 = system: HOP-92
HCC 2998 = system: HCC 2998
Malme-3M = system: Malme-3M
SK-OV-3 = system: SK-OV-3
HOP-18 = system: HOP-18
IGROV-1 = system: IGROV-1
COLO 205 = system: COLO 205
SNB-19 = system: SNB-19
HOP-62 = system: HOP-62
KM-20L2 = system: KM-20L2
SK-MEL-2 = system: SK-MEL-2
M14 = system: M14
786-0 = system: 786-0
CCRF-CEM = system: CCRF-CEM
SF-268 = system: SF-268
ACHN = system: ACHN

Measured: GI50

NC1(C(=O)O)CCC(C(=O)O)CC1 (stereo not drawn)
inactive: A498 > 100 µM | A549 > 100 µM | SF-295 > 100 µM | XF498 > 100 µM | UACC-62 > 100 µM | RXF 393 > 100 µM | NCI-H23 > 100 µM | RXF 631 > 100 µM | OVCAR-5 > 100 µM | DMS-273 > 100 µM | SK-MEL-28 > 100 µM | NCI-H460 > 100 µM | MOLT-4 > 100 µM | HL-60 > 100 µM | EKVX > 100 µM | RPMI-8226 > 100 µM | NCI-H522 > 100 µM | SF-539 > 100 µM | DLD-1 > 100 µM | SW-620 > 100 µM | SNB-78 > 100 µM | SNB-75 > 100 µM | UO-31 > 100 µM | U-251 > 100 µM | LOX IMVI > 100 µM | OVCAR-3 > 100 µM | DMS-114 > 100 µM | SR > 100 µM | M19-MEL > 100 µM | OVCAR-4 > 100 µM | NCI-H226 > 100 µM | HT-29 > 100 µM | SK-MEL-5 > 100 µM | LXFL 529 > 100 µM | CAKI-1 > 100 µM | KM12 > 100 µM | K562 > 100 µM | TK-10 > 100 µM | SN12C > 100 µM | OVCAR-8 > 100 µM | UACC-257 > 100 µM | HCT-116 > 100 µM | HOP-92 > 100 µM | HCC 2998 > 100 µM | Malme-3M > 100 µM | SK-OV-3 > 100 µM | HOP-18 > 100 µM | IGROV-1 > 100 µM | COLO 205 > 100 µM | SNB-19 > 100 µM | HOP-62 > 100 µM | KM-20L2 > 100 µM | SK-MEL-2 > 100 µM | M14 > 100 µM | 786-0 > 100 µM | CCRF-CEM > 100 µM | SF-268 > 100 µM | ACHN > 100 µM
